From PubChem BioAssay AID1845195 (Molecular Pharmacology Branch, DTP, NCI, 2023)

System: 156681-154-R-J1 tumor spheroid viability
Experiment: Anticancer human tumor 156681-154-R-J1 patient-derived melanoma cell line growth inhibition
Conditions: spheroids with HUVEC and MSC; for IC50: curve of first compound; for viability, T/C: stronger effect = lower value
Procedure, shortened: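 Complex tumor spheroids combined malignant cells with endothelial cells and mesenchymal stem cells. DNA-damaging drugs and DNA repair inhibitors were tested alone and in combination, at half-log dilutions down from clinical Cmax (top 10 microM if Cmax unknown), 0.25% DMSO final.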

[1] = second compound 1 µM, first compound 0.00949 µM
[2] = second compound 1 µM, first compound 0.03 µM
[3] = second compound 1 µM, first compound 0.0949 µM
[4] = second compound 1 µM, first compound 0.3 µM
[5] = second compound 1 µM, first compound 0.949 µM
[6] = second compound 1 µM, first compound 3 µM
[7] = second compound 3.16 µM, first compound 0.00949 µM
[8] = second compound 3.16 µM, first compound 0.03 µM
[9] = second compound 3.16 µM, first compound 0.0949 µM
[10] = second compound 3.16 µM, first compound 0.3 µM
[11] = second compound 3.16 µM, first compound 0.949 µM
[12] = second compound 3.16 µM, first compound 3 µM
[13] = second compound 10 µM, first compound 0.00949 µM
[14] = second compound 10 µM, first compound 0.03 µM
[15] = second compound 10 µM, first compound 0.0949 µM
[16] = second compound 10 µM, first compound 0.3 µM
[17] = second compound 10 µM, first compound 0.949 µM
[18] = second compound 10 µM, first compound 3 µM
[19] = second compound 31.6 µM, first compound 0.00949 µM
[20] = second compound 31.6 µM, first compound 0.03 µM
[21] = second compound 31.6 µM, first compound 0.0949 µM
[22] = second compound 31.6 µM, first compound 0.3 µM
[23] = second compound 31.6 µM, first compound 0.949 µM
[24] = second compound 31.6 µM, first compound 3 µM
[25] = second compound 100 µM, first compound 0.00949 µM
[26] = second compound 100 µM, first compound 0.03 µM
[27] = second compound 100 µM, first compound 0.0949 µM
[28] = second compound 100 µM, first compound 0.3 µM
[29] = second compound 100 µM, first compound 0.949 µM
[30] = second compound 100 µM, first compound 3 µM
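Also: spheroids exposed to compounds for 7 days before readout.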
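For viability, T/C in this document: percent of vehicle control viability where 100% = DMSO-treated spheroids.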

With `CNCc1ccc(-c2cc(-c3nc(-c4ccc(S(=O)(=O)C(C)C)cc4)cnc3N)on2)cc1` + Cn1nnc2c(C(N)=O)ncn2c1=O the IC50 (second compound 1 µM) was 1230 nM, the IC50 (second compound 3.16 µM) was 915 nM and the IC50 (second compound 10 µM) was 717 nM. It also gave an IC50 (second compound 31.6 µM) of 494 nM, an IC50 (second compound 100 µM) of 81.6 nM and a viability, T/C [1] of 107%. The viability, T/C [2] was 100%, the viability, T/C [3] was 98.8% and the viability, T/C [4] was 75.5%. It also gave a viability, T/C [5] of 62.3%, a viability, T/C [6] of 19% and a viability, T/C [7] of 88.2%. The viability, T/C [8] was 100%, the viability, T/C [9] was 90% and the viability, T/C [10] was 72.6%. It also gave a viability, T/C [11] of 50.7%, a viability, T/C [12] of 16.8% and a viability, T/C [13] of 93.6%. For the same compound, the viability, T/C [14] was 73.9%, the viability, T/C [15] was 80.7% and the viability, T/C [16] was 64.8%. It also gave a viability, T/C [17] of 46%, a viability, T/C [18] of 11.1% and a viability, T/C [19] of 63.5%. It also gave a viability, T/C [20] of 65.1%, a viability, T/C [21] of 59.5% and a viability, T/C [22] of 59.8%. It also gave a viability, T/C [23] of 38%, a viability, T/C [24] of 5.46% and a viability, T/C [25] of 54.2%. The viability, T/C [26] was 53%, the viability, T/C [27] was 54.1% and the viability, T/C [28] was 34.6%. For the same compound, the viability, T/C [29] was 22.1% and the viability, T/C [30] was 1.01%.
With `Cc1sc2c(c1C)C(c1ccc(Cl)cc1)=NC(CC(=O)Nc1ccc(O)cc1)c1nnc(C)n1-2` (stereo not given) + Cn1nnc2c(C(N)=O)ncn2c1=O the IC50 (second compound 1 µM) was greater than 3000 nM, the IC50 (second compound 3.16 µM) was 857 nM and the IC50 (second compound 10 µM) was 128 nM. For the same compound, the IC50 (second compound 31.6 µM) was 20.4 nM, the IC50 (second compound 100 µM) was 14.8 nM and the viability, T/C [1] was 92%. The viability, T/C [2] was 76%, the viability, T/C [3] was 81.5% and the viability, T/C [4] was 80.7%. The viability, T/C [5] was 70.9%, the viability, T/C [6] was 57% and the viability, T/C [7] was 90.3%. For the same compound, the viability, T/C [8] was 70.2%, the viability, T/C [9] was 76.4% and the viability, T/C [10] was 54.9%. The viability, T/C [11] was 52.4%, the viability, T/C [12] was 37.4% and the viability, T/C [13] was 79.1%. It also gave a viability, T/C [14] of 75.5%, a viability, T/C [15] of 47.9% and a viability, T/C [16] of 41.3%. It also gave a viability, T/C [17] of 35.6%, a viability, T/C [18] of 24.4% and a viability, T/C [19] of 62.3%. For the same compound, the viability, T/C [20] was 43%, the viability, T/C [21] was 31.8% and the viability, T/C [22] was 29%. For the same compound, the viability, T/C [23] was 22.6%, the viability, T/C [24] was 18.6% and the viability, T/C [25] was 53.4%. For the same compound, the viability, T/C [26] was 44.5%, the viability, T/C [27] was 26.4% and the viability, T/C [28] was 13.6%. The viability, T/C [29] was 12.3% and the viability, T/C [30] was 11.7%.
Work on `Cn1ncnc1[C@H]1c2n[nH]c(=O)c3cc(F)cc(c23)N[C@@H]1c1ccc(F)cc1` + Cn1nnc2c(C(N)=O)ncn2c1=O yielded an IC50 (second compound 1 µM) of 971 nM, an IC50 (second compound 3.16 µM) of 591 nM and an IC50 (second compound 10 µM) of 270 nM. For the same compound, the IC50 (second compound 31.6 µM) was less than 9.49 nM, the IC50 (second compound 100 µM) was less than 9.49 nM and the viability, T/C [1] was 78.4%. For the same compound, the viability, T/C [2] was 83.7%, the viability, T/C [3] was 75% and the viability, T/C [4] was 72.7%. The viability, T/C [5] was 50.5%, the viability, T/C [6] was 16.6% and the viability, T/C [7] was 69%. The viability, T/C [8] was 74.4%, the viability, T/C [9] was 71% and the viability, T/C [10] was 64.1%. The viability, T/C [11] was 40%, the viability, T/C [12] was 15.2% and the viability, T/C [13] was 81.1%. It also gave a viability, T/C [14] of 88.4%, a viability, T/C [15] of 54.6% and a viability, T/C [16] of 50%. The viability, T/C [17] was 33.7%, the viability, T/C [18] was 13.6% and the viability, T/C [19] was 44.4%. The viability, T/C [20] was 35.4%, the viability, T/C [21] was 34.9% and the viability, T/C [22] was 29.6%. It also gave a viability, T/C [23] of 17%, a viability, T/C [24] of 18% and a viability, T/C [25] of 16.3%. It also gave a viability, T/C [26] of 14.4%, a viability, T/C [27] of 12.2% and a viability, T/C [28] of 11.3%. It also gave a viability, T/C [29] of 14% and a viability, T/C [30] of 14.4%.
Work on `O=C(c1cc(Cc2n[nH]c(=O)c3ccccc23)ccc1F)N1CCN(C(=O)C2CC2)CC1` + Cn1nnc2c(C(N)=O)ncn2c1=O yielded an IC50 (second compound 1 µM) greater than 30000 nM, an IC50 (second compound 3.16 µM) of 18200 nM and an IC50 (second compound 10 µM) of 14700 nM. It also gave an IC50 (second compound 31.6 µM) of 1200 nM, an IC50 (second compound 100 µM) of less than 94.9 nM and a viability, T/C [3] of 92.1%. For the same compound, the viability, T/C [4] was 74.6%, the viability, T/C [5] was 97.5% and the viability, T/C [6] was 80.2%. It also gave a viability, T/C (second compound 1 µM, first compound 9.49 µM) of 66.5%, a viability, T/C (second compound 1 µM, first compound 30 µM) of 50.3% and a viability, T/C [9] of 81.1%. The viability, T/C [10] was 86.4%, the viability, T/C [11] was 78.3% and the viability, T/C [12] was 74.2%. For the same compound, the viability, T/C (second compound 3.16 µM, first compound 9.49 µM) was 52.1%, the viability, T/C (second compound 3.16 µM, first compound 30 µM) was 48.3% and the viability, T/C [15] was 85.2%. It also gave a viability, T/C [16] of 81.3%, a viability, T/C [17] of 70.5% and a viability, T/C [18] of 68.5%. For the same compound, the viability, T/C (second compound 10 µM, first compound 9.49 µM) was 55.6%, the viability, T/C (second compound 10 µM, first compound 30 µM) was 40.9% and the viability, T/C [21] was 69%. The viability, T/C [22] was 63.3%, the viability, T/C [23] was 48.4% and the viability, T/C [24] was 44.5%. The viability, T/C (second compound 31.6 µM, first compound 9.49 µM) was 35.6%, the viability, T/C (second compound 31.6 µM, first compound 30 µM) was 27.4% and the viability, T/C [27] was 36.8%. For the same compound, the viability, T/C [28] was 34.4%, the viability, T/C [29] was 27.4% and the viability, T/C [30] was 22.6%. For the same compound, the viability, T/C (second compound 100 µM, first compound 9.49 µM) was 15.1% and the viability, T/C (second compound 100 µM, first compound 30 µM) was 21.6%.
